Data published in paper PMC6680226, “Peptoid Efficacy against Polymicrobial Biofilms Determined by Using Propidium Monoazide‐Modified Quantitative PCR” (Chembiochem, 2016).
“Also recorded” adds a separate entry of the source. Where two headings read alike, the source gives them in different places.

Tests used:
[1] = tested on: C. albicans in polymicrobial biofilm with S. aureus; assay: PMA-qPCR, C. albicans within C. albicans-S. aureus polymicrobial biofilm; format: cell-based, Candida albicans; conditions: peptoid 100 μM, 24 h; n=3
Method: (§1) Preparation and treatment of polymicrobial biofilms: Overnight cultures of C. albicans were prepared in microtitre plates as above, and allowed to adhere for 4 h to facilitate initial biofilm formation. Planktonic C. albicans cells were removed as above before the addition of S. aureus or E. coli (100 μL, 5.0×10^6 cells per mL). Bacteria were allowed to adhere to the C. albicans biofilms for 4 h to facilitate polymicrobial biofilm formation. Following a washing step, the biofilms were then treated with peptoid (10–100 μM), and incubated for a further 24 h to allow biofilm maturation. Wells were washed as above, and the polymicrobial biofilms were quantified by PMA‐modified qPCR.
(§2) Biofilm quantification by PMA‐modified qPCR: In order to determine the bactericidal and fungicidal activity of peptoids against single‐species and polymicrobial biofilms, the biofilms were detached from the microtitre plate wells prior to quantification. The wells were washed as above, then BHI broth (100 μL) was added and the plate was sealed. Biofilm detachment was achieved by sonication for 5 min in an ultrasonic bath (Dawe, Hayes, Middlesex, UK). The remaining cells were then collected in BHI (80 μL). […]
(§3) Generation of standard curves for PMA‐qPCR: For quantification of C. albicans, S. aureus and E. coli in single‐species and polymicrobial biofilms, DNA standards were prepared by extraction of DNA from planktonic organisms with the microLYSIS‐Plus kit and purification with a DNeasy kit (Qiagen). DNA standards (10^1–10^6 cells) were used in PMA‐qPCR assays to generate standard curves from which the numbers of living organisms within the biofilms could be determined.

[2] = tested on: E. coli (ATCC 29522) biofilm; assay: Crystal violet assay, E. coli monospecies biofilm; format: cell-based, Escherichia coli; conditions: peptoid 100 μM, 24 h treatment of 4 h biofilm; n=3
Method: (§4) Microorganism strains and growth conditions: C. albicans (NCTC 3179) was subcultured aerobically on Sabouraud agar plates, prepared by using Sabouraud dextrose powder and agar (Oxoid, ThermoFisher) and propagated in yeast peptone dextrose broth. E. coli (ATCC 29522) and S. aureus (NCTC 6571) were grown on blood agar plates (Fanin, Dublin, Ireland) and propagated in brain heart infusion (BHI) broth (Oxoid, ThermoFisher).
(§5) Preparation and treatment of single‐species biofilms: Overnight cultures of C. albicans were washed and resuspended (1.0×10^6 cells per mL) in RPMI‐1640 (Sigma–Aldrich). Overnight cultures of S. aureus or E. coli were washed and resuspended (5.0×10^6 cells per mL) in BHI broth. Samples (100 μL) were added to microtitre plate wells (Thermo Fisher Scientific), and a biofilm was allowed to form for 4 h. Wells were washed with PBS (3×200 μL) to facilitate removal of planktonic cells, and the biofilms were then treated with 1–18 (100 μM in the appropriate medium). Plates were incubated for a further 24 h to allow biofilm maturation. After removal of planktonic cells by washing, biofilms were quantified by the crystal violet assay or by PMA‐qPCR.
(§6) Biofilm quantification by crystal violet assay: Washed biofilms were fixed with methanol (100 μL) for 10 min. Following removal of methanol, the wells were air dried and stained with crystal violet solution (Clin‐Tech, Guildford, UK) for 20 min at room temperature. Excess stain was removed by washing, then the plate was air‐dried and bound crystal violet was re‐solubilised in acetic acid (33 %, 160 μL) prior to reading at 570 nm in a GENios microtitre plate reader (Tecan, Zürich, Switzerland).

[3] = tested on: C. albicans monospecies biofilm; assay: PMA-qPCR viable cell number, C. albicans monospecies biofilm; format: cell-based, Candida albicans; conditions: peptoid 100 μM, 24 h; n=3
Method: as §5, §2, §3

[4] = tested on: S. aureus (NCTC 6571) biofilm; assay: Crystal violet assay, S. aureus monospecies biofilm; format: cell-based, Staphylococcus aureus; conditions: peptoid 100 μM, 24 h treatment of 4 h biofilm; n=3
Method: as §4, §5, §6

[5] = tested on: C. albicans (NCTC 3179) biofilm; assay: Crystal violet assay, C. albicans monospecies biofilm; format: cell-based, Candida albicans; conditions: peptoid 100 μM, 24 h treatment of 4 h biofilm; n=3
Method: as §4, §5, §6

[6] = tested on: HepG2; assay: alamarBlue cytotoxicity assay, HepG2 cells; conditions: for ED50 HepG2: alamarBlue viability, 2-100 μM from DMSO stock, 1 h with compound then 24 h incubation at 37 °C, fluorescence, triplicate on a minimum of two occasions; for Toxicity to HepG2 cells (in words): alamarBlue, up to 100 μM
Method: (§7) Peptoid cytotoxicity studies: All 18 peptoids were tested for cytotoxicity against HepG2 epithelial (Sigma–Aldrich) and HaCaT keratinocyte (ThermoFisher) cell lines, Cytotoxicity analyses were performed in Costar 96‐well plates (Thermo Fisher Scientific) with alamarBlue (Invitrogen/Thermo Fisher Scientific) for cell viability detection as described by the manufacturer. HepG2 and HaCaT cells were grown at 37 °C under CO2 (5 %) in DMEM (high glucose) supplemented with heat‐inactivated foetal bovine sera (FBS, 10 %; Biosera, Uckfield, UK) and penicillin/streptomycin (1 %). Cells were counted in a Neubauer Improved Haemocytometer. HepG2 or HaCaT cells were seeded 24 h prior to treatment in 96‐well plates (2×10^4 cells per well in 100 μL). After 24 h, cells were incubated in triplicate with a dilution series of compound (2–100 μM from 5 mM stock solutions in DMSO) in the medium (50 μL) for 1 h. An aliquot (40 μL) was removed from each well, before the addition of medium (90 μL) followed by incubation for 24 h (37 °C, 5 % CO2). Then, alamarBlue (10 μL) was added to each well before incubation (2 h for Hep G2, 1 h for HaCaT) prior to assessing cell viability in a fluorescent plate reader (Biotek, Winooski, VT; λ ex=560 nm, λ em=600 nm). All data were measured in triplicate on a minimum of two occasions.
(§8) Toxicity was determined using an alamarBlue® cytotoxicity assay.

[7] = tested on: S. aureus in polymicrobial biofilm with C. albicans; assay: PMA-qPCR, S. aureus within C. albicans-S. aureus polymicrobial biofilm; format: cell-based, Staphylococcus aureus; conditions: 24 h; for Reduction of cell numbers of S. aureus in mixed-species biofilm: peptoid 10 μM, PMA-qPCR
Method: as §1
Biofilm quantification by PMA‐modified qPCR: In order to determine the bactericidal and fungicidal activity of peptoids against single‐species and polymicrobial biofilms, the biofilms were detached from the microtitre plate wells prior to quantification. The wells were washed as above, then BHI broth (100 μL) was added and the plate was sealed. Biofilm detachment was achieved by sonication for 5 min in an ultrasonic bath (Dawe, Hayes, Middlesex, UK). The remaining cells were then collected in BHI (80 μL). PMA (20 μL, 2 mM in broth;47 Biotium, Fremont, CA) was added to the biofilm suspensions […] and incubated (37 °C, 5 min) prior to photoactivation with a broad‐spectrum LED flood light (60 LED, 0.1 W) placed 15 cm from the tubes (mixed by inversion during the 20 min photoactivation step).48 DNA was extracted by using a microLYSIS‐Plus kit (Microzone, Haywards Heath, UK), and qPCR was performed in a Mx3005P qPCR System (Agilent Technologies).49, 50, 51 See the Tables in the Supporting Information.
as §3

[8] = tested on: HaCaT; assay: alamarBlue cytotoxicity assay, HaCaT keratinocytes; conditions: for ED50 HaCaT: alamarBlue viability, 2-100 μM from DMSO stock, 1 h with compound then 24 h incubation at 37 °C, fluorescence, triplicate on a minimum of two occasions; for Toxicity to HaCaT cells (in words): alamarBlue, up to 100 μM
Method: as §7, §8

[9] = tested on: E. coli monospecies biofilm; assay: PMA-qPCR viable cell number, E. coli monospecies biofilm; format: cell-based, Escherichia coli; conditions: peptoid 100 μM, 24 h; n=3
Method: as §5, §2, §3

[10] = tested on: trypsin; format: in vitro ADME; conditions: trypsin 0.5 μg/mL, Tris·HCl 50 mM pH 7.8 with CaCl2 9 mM, 24 h; MALDI-TOF MS read-out
Method: Proteolytic stability studies: Peptoid stability was confirmed by comparing the tryptic digestion of 7 with LL‐37 (Innovagen AB, Lund, Sweden). Stock solutions (5 mg mL^−1) of 7 and LL‐37 were prepared, and samples (7.5 μL) were incubated with trypsin (0.5 μg mL^−1) and incubation buffer (37.5 μL, Tris⋅HCl (50 mM, pH 7.8) containing CaCl2 (9 mM)). After 0 h (for mass spectrometric verification) or 24 h, the reaction mixture was acidified by addition of TFA (10 %, 50 μL) to denature the enzyme and stop enzyme activity. The samples were air‐dried and then reconstituted in acetonitrile/water/TFA (50 μL, 40:59.5:0.5, v/v/v), and an aliquot (1 μL) was placed onto a stainless steel MALDI target. Samples were covered immediately with matrix (1 μL, α‐cyano‐4‐hydroxycinnamic acid (53 mM in acetonitrile/water/TFA, 70:29.98:0.02, v/v/v)). MALDI‐TOF MS was performed on a linear TOF Voyager DE‐mass spectrometer (PerSeptive Biosystems, Farmingham, MA, USA). The samples were analysed in positive detection mode, and internal mass calibration with known standards established the mass accuracy to ±0.1 %. Fifty laser scans were averaged for each sample, and variable laser intensity was used to ensure the most representative mass spectra for the wells.
4. Proteolytic Stability Study […]

[11] = tested on: HaCaT
Method: as §7, §8

[12] = tested on: HepG2
Method: as §7, §8

Molecule | ED50 HepG2 [6] [µM] | ED50 HaCaT [8] [µM] | also measured
(NaeNpheNphe)4 [Peptoid 7] | > 100 | > 100 | Reduction in C. albicans cell number in mixed biofilm with S. aureus (PMA-qPCR) [1]: the greatest reduction; Efficacy against E. coli monospecies biofilm (biomass, crystal violet) [2]: amongst the most efficacious; Reduction in viable cell number, C. albicans monospecies biofilm (PMA-qPCR) [3]: significant reduction in cell number; Efficacy against S. aureus monospecies biofilm (biomass, crystal violet) [4]: amongst the most efficacious; Efficacy against C. albicans monospecies biofilm (biomass, crystal violet) [5]: amongst the most efficacious; Toxicity to HepG2 cells (in words) [6]: negligible toxicity; Reduction of cell numbers of S. aureus in mixed-species biofilm [7]: ~100%; Toxicity to HaCaT cells (in words) [8]: negligible toxicity; Reduction in viable cell number, E. coli monospecies biofilm (PMA-qPCR) [9]: significant reduction in cell number
(NLysNspeNspe)2 [Peptoid 6] | > 100 | > 100 | 
(NahNpheNphe)3 [Peptoid 14] | > 100 | > 100 | 
(NahNspeNspe)4 [Peptoid 16] | 41 ± 1 | 23 ± 1 | 
(NaeNspeNspe)2 [Peptoid 12] | > 100 | > 100 | 
(NahNpheNphe)2 [Peptoid 15] | > 100 | > 100 | 
CC[C@H](C)[C@H](NC(=O)[C@H](CCCCN)NC(=O)[C@H](CCC(=O)O)NC(=O)[C@H](CCCCN)NC(=O)[C@H](CO)NC(=O)[C@H](CCCCN)NC(=O)[C@H](CCCNC(=N)N)NC(=O)[C@H](Cc1ccccc1)NC(=O)[C@H](Cc1ccccc1)NC(=O)[C@H](CC(=O)O)NC(=O)CNC(=O)[C@H](CC(C)C)NC(=O)[C@@H](N)CC(C)C)C(=O)NCC(=O)N[C@@H](CCCCN)C(=O)N[C@@H](CCC(=O)O)C(=O)N[C@@H](Cc1ccccc1)C(=O)N[C@@H](CCCCN)C(=O)N[C@@H](CCCNC(=N)N)C(=O)N[C@H](C(=O)N[C@H](C(=O)N[C@@H](CCC(N)=O)C(=O)N[C@@H](CCCNC(=N)N)C(=O)N[C@H](C(=O)N[C@@H](CCCCN)C(=O)N[C@@H](CC(=O)O)C(=O)N[C@@H](Cc1ccccc1)C(=O)N[C@@H](CC(C)C)C(=O)N[C@@H](CCCNC(=N)N)C(=O)N[C@@H](CC(N)=O)C(=O)N[C@@H](CC(C)C)C(=O)N[C@H](C(=O)N1CCC[C@H]1C(=O)N[C@@H](CCCNC(=N)N)C(=O)N[C@H](C(=O)N[C@@H](CCC(=O)O)C(=O)N[C@@H](CO)C(=O)O)[C@@H](C)O)C(C)C)[C@@H](C)CC)C(C)C)[C@@H](C)CC [LL‐37] |  |  | Degradation after treatment with trypsin [10]: degraded to peptide fragments
(NaeNspeNspe)4 [Peptoid 10] | 41 ± 2 | 26 ± 2 | 
(NahNpheNphe)4 [Peptoid 13] | > 100 | > 100 | 
(NLysNpheNphe)3 [Peptoid 2] | > 100 | > 100 | 
(NaeNpheNphe)2 [Peptoid 9] | > 100 | > 100 | 
(NLysNspeNspe)3 [Peptoid 5] | > 100 | > 100 | Efficacy against E. coli monospecies biofilm (biomass, crystal violet) [2]: amongst the most efficacious; Reduction in viable cell number, C. albicans monospecies biofilm (PMA-qPCR) [3]: significant reduction in cell number; also recorded: the greatest reduction in cell number; Efficacy against S. aureus monospecies biofilm (biomass, crystal violet) [4]: amongst the most efficacious; Efficacy against C. albicans monospecies biofilm (biomass, crystal violet) [5]: amongst the most efficacious; Toxicity to HepG2 cells (in words) [6]: negligible toxicity; Reduction of cell numbers of S. aureus in mixed-species biofilm [7]: ~100%; Reduction in S. aureus cell number in mixed biofilm with C. albicans (PMA-qPCR) ([7]; peptoid 100 μM, n=3): better able to reduce the cell count; Toxicity to HaCaT cells (in words) [8]: negligible toxicity; Reduction in viable cell number, E. coli monospecies biofilm (PMA-qPCR) [9]: significant reduction in cell number
(NLysNspeNspe)4 [Peptoid 4] |  |  | ED50 HaCaT [11]: 20 ± 1 µM; ED50 HepG2 [12]: 29 ± 1 µM
(NLysNpheNphe)4 [Peptoid 1] | > 100 | 36 ± 1 | 
(NahNspeNspe)2 [Peptoid 18] | > 100 | > 100 | 
(NaeNspeNspe)3 [Peptoid 11] | > 100 | > 100 | 
(NaeNpheNphe)3 [Peptoid 8] | > 100 | > 100 | 
(NLysNpheNphe)2 [Peptoid 3] | > 100 | > 100 | 
